Assay results from patent US7449494B1, “Polymeric skin moisturizing compounds” (SurfaTech Corporation, priority 2004, dated 2008).

Test system: rough dry skin
Experiment: Skin moisturization evaluation: appearance of treated skin under the dissection microscope
Type: in vivo
Conditions: 5% solution applied to skin; scale of 1 to 5, 1 being poor and 5 being best
Source text: The effect of moisturization can be measured by the appearance of the skin when treated. Untreated skin that is in need of moisturization is rough, scaly and dry looking under the dissection microscope. The application of the moisturization solution to the skin and its effect upon minimizing roughness, scaling and dry appearance is a good measure of moisturization. We performed such an evaluation and rated the performance of a scale of 1 to 5. 1 being poor and 5 being best.

Structure (SMILES)	Rating (moisturization: minimizing roughness, scaling and dry appearance)
C[N+](C)(C)CCO [Choline]	4
OCC(O)CO [Glycerin]	2
